Earlier results in patent publication US20240209370A1, “METHODS OF MODULATING ALK” (SOCIETE DES PRODUITS NESTLE S.A., priority 2017, published 2024).

Biological target: ALK (Homo sapiens, UniProt Q9UM73)
Details: effect on ALK activity or expression as listed from ctdbase, Medline or cited patents

Sequence of ALK (Q9UM73 19-1620): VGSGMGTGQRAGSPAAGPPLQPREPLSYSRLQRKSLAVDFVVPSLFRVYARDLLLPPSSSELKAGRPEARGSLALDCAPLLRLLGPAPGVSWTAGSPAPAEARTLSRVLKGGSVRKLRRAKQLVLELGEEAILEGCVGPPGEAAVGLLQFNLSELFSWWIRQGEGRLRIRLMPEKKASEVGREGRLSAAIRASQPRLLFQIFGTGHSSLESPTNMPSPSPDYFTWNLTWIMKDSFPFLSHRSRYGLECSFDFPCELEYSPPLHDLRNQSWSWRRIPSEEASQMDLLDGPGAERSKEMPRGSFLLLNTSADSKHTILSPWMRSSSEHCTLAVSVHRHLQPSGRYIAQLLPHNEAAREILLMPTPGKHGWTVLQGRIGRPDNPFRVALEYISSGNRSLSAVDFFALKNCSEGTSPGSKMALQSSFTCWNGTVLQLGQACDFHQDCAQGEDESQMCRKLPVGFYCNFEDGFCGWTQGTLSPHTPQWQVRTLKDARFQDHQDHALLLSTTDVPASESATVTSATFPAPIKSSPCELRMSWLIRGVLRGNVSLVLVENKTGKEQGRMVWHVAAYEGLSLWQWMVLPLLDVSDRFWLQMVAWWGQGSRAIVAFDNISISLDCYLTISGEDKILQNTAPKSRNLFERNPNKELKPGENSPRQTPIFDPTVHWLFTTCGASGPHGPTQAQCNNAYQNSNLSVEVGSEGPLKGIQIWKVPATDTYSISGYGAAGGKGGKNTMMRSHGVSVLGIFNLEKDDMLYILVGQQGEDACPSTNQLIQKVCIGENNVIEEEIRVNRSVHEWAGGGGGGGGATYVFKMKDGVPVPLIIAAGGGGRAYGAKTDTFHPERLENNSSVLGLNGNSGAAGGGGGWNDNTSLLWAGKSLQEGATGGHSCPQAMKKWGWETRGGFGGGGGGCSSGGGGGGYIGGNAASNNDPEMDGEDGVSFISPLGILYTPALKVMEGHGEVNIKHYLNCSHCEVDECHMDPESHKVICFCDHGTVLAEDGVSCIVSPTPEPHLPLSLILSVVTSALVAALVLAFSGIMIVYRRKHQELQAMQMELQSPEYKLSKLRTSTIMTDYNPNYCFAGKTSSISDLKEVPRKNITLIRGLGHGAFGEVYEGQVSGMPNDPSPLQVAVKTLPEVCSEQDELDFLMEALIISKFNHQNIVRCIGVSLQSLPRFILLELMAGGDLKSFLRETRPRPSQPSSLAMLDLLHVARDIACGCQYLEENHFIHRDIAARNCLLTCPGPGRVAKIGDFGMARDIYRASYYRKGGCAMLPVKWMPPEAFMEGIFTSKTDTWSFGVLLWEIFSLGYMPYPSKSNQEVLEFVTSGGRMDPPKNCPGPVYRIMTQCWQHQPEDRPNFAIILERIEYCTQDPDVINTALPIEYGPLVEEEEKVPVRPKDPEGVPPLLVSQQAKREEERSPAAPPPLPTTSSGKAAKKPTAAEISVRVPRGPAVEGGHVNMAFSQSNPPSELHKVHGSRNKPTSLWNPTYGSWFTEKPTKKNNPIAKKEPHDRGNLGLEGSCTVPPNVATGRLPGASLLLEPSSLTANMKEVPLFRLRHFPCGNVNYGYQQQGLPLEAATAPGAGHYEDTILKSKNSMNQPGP

| Molecule | Interaction Actions |
| --- | --- |
| CO[C@H]1C[C@@H]2CC[C@@H](C)[C@@](O)(O2)C(=O)C(=O)N2CCCC[C@H]2C(=O)O[C@H]([C@H](C)C[C@@H]2CC[C@@H](OCCO)[C@H](OC)C2)CC(=O)[C@H](C)/C=C(\C)[C@@H](O)[C@@H](OC)C(=O)[C@H](C)C[C@H](C)/C=C/C=C/C=C/1C [everolimus] | inhibit |
| CS(=O)(=O)CCNCc1ccc(-c2ccc3ncnc(Nc4ccc(OCc5cccc(F)c5)c(Cl)c4)c3c2)o1 [lapatinib] | inhibit |
| CC(=O)N[C@@H](CS)C(=O)O [Acetylcysteine] | affects activity |
| C[C@H]1c2cccc(O)c2C(O)=C2C(=O)[C@]3(O)C(O)=C(C(N)=O)C(=O)[C@@H](N(C)C)[C@@H]3[C@@H](O)[C@@H]21 [vibramycin] | inhibit |
| Cc1cc(O)c2c(c1)C(=O)c1cc(O)cc(O)c1C2=O [emodin] | inhibit |
| CC1=C(/C=C/C(C)=C/C=C/C(C)=C/C(=O)O)C(C)(C)CCC1 [Tretinoin] | decreases expression |
| C[C@]12CCC(=O)C=C1CC[C@@H]1[C@@H]2[C@@H](O)C[C@@]2(C)[C@H]1CC[C@]2(O)C(=O)CO [hydrocortisone] | suppress |
| Cc1cc(Nc2ncc(Cl)c(Nc3ccccc3S(=O)(=O)C(C)C)n2)c(OC(C)C)cc1C1CCNCC1 [ceritinib] | inhibit |
| O=S(=O)(O)OC[C@H]1O[C@@](COS(=O)(=O)O)(O[C@H]2O[C@H](COS(=O)(=O)O)[C@@H](OS(=O)(=O)O)[C@H](OS(=O)(=O)O)[C@H]2OS(=O)(=O)O)[C@@H](OS(=O)(=O)O)[C@@H]1OS(=O)(=O)O [sucrose octasulfate] | inhibit |
| COc1cc2nccc(Oc3ccc(NC(=O)Nc4cc(C)on4)c(Cl)c3)c2cc1OC [tivozanib] | inhibit |
| CO[C@H]1[C@@H](OC)C[C@H](C)[C@@H](OC)C2=CC(=O)C=C(NC(=O)/C(C)=C/C=C\[C@H](OC)[C@@H](OC(N)=O)/C(C)=C/[C@@H]1C)C2=O [herbimycin] | inhibit |
| c1cncnc1 [pyrimidine] | inhibit |
| COc1cc2c(Oc3ccc(NC(=O)C4(C(=O)Nc5ccc(F)cc5)CC4)cc3F)ccnc2cc1OCCCN1CCOCC1 [foretinib] | inhibit |
| C[C@H](Cc1ccc(O)c(O)c1)[C@@H](C)Cc1ccc(O)c(O)c1 [Masoprocol] | decreases activity |
| heparin | terminate |
